Results reported in a melting point compilation (Tetko et al.; mined from patent text by program, amines drawn as free bases though some values may be those of a salt).

| SMILES | melting point [°C] |
| --- | --- |
| CCc1nc(=O)[nH]c2sccc12 | 217 to 220 |
| CC(C)(C)CC(C)(C)c1cc(Cc2cc(C(C)(C)CC(C)(C)C)cc(-n3nc4ccccc4n3)c2O)c(O)c(-n2nc3ccccc3n2)c1 | 198 |
| CNc1nnc(S[Si](C)(C)C)s1 | 80 to 82 |
| CCC(=O)Nc1c(C#N)cnn1-c1ccc(OC(F)(F)F)cc1Cl | 127 |
| O=S(=O)(NCc1ccc(Cl)cc1)c1cc(Cl)c2cccnc2c1O | 189 to 190 |
| CCOC(=O)COc1ccc2c(-c3ccc(Cl)cc3)noc2c1 | 97 |
| CN(C)CCNC(=O)Nc1ccc(-c2cnc(COCc3cc4ccccc4o3)o2)cc1 | 150 to 154 |
| CCOC(=O)C1(F)C(=O)NC(=O)NC1N1CCCCC1 (configuration not stated) | 149 to 150 |
| Cc1cc2c(c(C)c1C)C(C)(C)CCC2(C)C | 79 to 82 |
| Cc1oc(-c2ccccc2)nc1CCOc1ccc(CC(C(=O)O)C(=O)N(C)C)cc1 (configuration not stated) | 48.5 to 49.7 |
| CC1(C)CCc2c(-c3ccco3)nc3sc4c(NCCN5CCOCC5)ncnc4c3c2C1 | 123 to 125 |
| Cc1ccc(OC2CCN(C(=O)C(=O)Nc3ccc4[nH]c(=O)sc4c3)CC2)cc1 | 215 to 217 |
| C=CCOc1cc2oc(=O)ccc2cc1C | 124 to 125 |
| CSC[C@H]1C[C@H](C(=O)O)CS1 (relative stereo) | 74.8 to 76 |
| O=C1c2cscc2C(=O)c2cscc21 | 340 |
| Cn1c(C(F)(F)F)nn(-c2cc(F)c(C#N)cc2F)c1=O | 74 |
| CCCC(C(C)=CC(CNC(=O)c1cccnc1)=NO)[N+](=O)[O-] (configuration not stated) | 128 to 131 |
| COCc1c(C(=O)OC(C)C)ncc2[nH]c3cccc(Cc4ccccc4Cl)c3c12 | 187 to 189 |
| CC(c1cccnn1)C(O)(Cn1cncn1)c1ccc(F)cc1F (configuration not stated) | 134 to 135 |
| COC(=O)C(CCSC)N(C(=O)OC(C)(C)C)C(=O)c1ccc(N)c2ccccc12 (configuration not stated) | 131 to 132 |
| O=C1NCCc2c(-c3ccsc3)[nH]c3cccc1c23 | 255 to 256 |
| Cn1cc(-c2ccc(Cl)cc2)c(=O)c(-c2cccc(Cl)c2)c1 | 170 to 172 |
| O=C(c1ccccc1)c1cc2ccncc2[nH]1 | 245 to 247 |
| Cn1nc(-c2ccc(Cl)cc2)n(Cc2ccccc2)c1=O | 90 to 91 |

| SMILES | melting point [°C] |
| --- | --- |
| COc1c(F)cc2[nH]c(C)c(CC(=O)O)c2c1F | 176 to 178 |
| O=C(CCc1cccnc1)c1ccccc1 | 86 to 87 |
| O=[N+]([O-])c1ccc(C=Cc2ccc(N3CCC(O)CC3)cc2)cc1 | 248 to 250 |
| CCNC(=O)Nc1nc2cc(-c3c(C)noc3C)cc(C(=O)NCC)n2n1 | 238 to 241 |
| Cc1ccc(-c2ccnc3c(C(=O)c4cccs4)cnn23)cc1NC(=O)OC(C)C | 198 to 200 |
| CC(C)(C)OC(=O)OCc1ccc(COC(=O)OC(C)(C)C)cc1 | 71 to 74 |
| CC1(C)OC2C=CC(=O)C2O1 (single isomer, unassigned; (+)) | 68 to 69 |
| OCCCc1cc(-c2ccc(C(F)(F)F)cc2)no1 | 59 to 60 |
| N#CCc1cccc2c(C3CCCC3)nccc12 | 99.4 to 100 |
| Cc1nc(-c2ccc(C#N)cc2)sc1C(=O)N[C@H](C)[C@](O)(Cn1cncn1)c1ccc(F)cc1F | 109 to 111 |
| OP(O)C(NC(c1ccccc1)c1ccccc1)c1cccs1 (configuration not stated) | 201 |
| CCc1nc2c(C)cc(C)nc2n1Cc1ccc(C(C(C)C)C(C)C(=O)O)cc1 (configuration not stated) | 84 to 90 |
| Nc1sc2c(c1C(=O)c1ccc(Cl)cc1)CCN(CCc1ccc([N+](=O)[O-])cc1)C2 | 150 to 152 |
| O=C(C1CCN(c2ccncc2)CC1)N1CCN(S(=O)(=O)c2ccc3ccccc3c2)C(Cc2ccccc2)C1 (configuration not stated) | 186 to 188 |
| CCCCCCCCNC1=NS(=O)(=O)c2cnccc2N1 | 176 to 179 |
| CN1CC=C(c2c[nH]c3ccc(O)cc23)CC1 | 182 to 185 |
| Cn1ncc2c(c1=O)C(Cc1ccccc1)NCCS2 (configuration not stated) | 112 to 114 |
| CN1C(=O)CN(c2ccccc2)C1=O | 168 to 170 |
| CC1Cc2cc(OCc3ccccc3)c(Cl)c(Cl)c2C1=O (configuration not stated) | 153 to 155 |
| CN1Cc2c(-c3noc(CN4CC=CC4)n3)ncn2-c2ccccc2C1=O | 215 to 220 |
| OC(c1ccc(F)cc1)(c1ccc(F)cc1)C1CCN(Cc2ccccc2)C1 (configuration not stated) | 99 to 100 |
| COc1ccccc1S(=O)(=O)N(C)c1cccc2cc(C3=NCC(CCO)S3)[nH]c12 (configuration not stated) | 154 to 155 |
| CCc1ccc2oc(C(=O)Nc3ccc(-c4ccc(S(=O)(=O)NC(C(=O)O)C(C)C)cc4)cc3)c(C)c2c1OC (configuration not stated) | 225 to 228 |

Results, then the compound that gave them:

| melting point [°C] | SMILES |
| --- | --- |
| 225 to 226 | COc1cc(CNC(=O)c2nc3scc(COCc4ccc(C(=O)O)cc4)c3c(=O)[nH]2)ccc1F |
| 184 | Clc1ccc(C2CN3CCN=C3c3ccccc32)cc1 (single isomer, unassigned; (-)) |
| 52 to 54 | COC(=O)C(C)Oc1cc(C)ccc1COc1ccc(-n2c(=O)cc(C(F)(F)F)n(C)c2=O)cc1 (configuration not stated) |
| 132 to 134 | N=C(N)NCCCOc1ccc2cc(CC(=O)O)c(=O)n(Cc3ccccc3)c2c1 |
| 118 to 119 | CCOC(=O)c1[nH]c2c(C)ccc(Cl)c2c1C |
| 89 to 93 | CC1CCCN1CCCN1CCN(CCCN2CCCC2C)C1=C(C#N)C#N (configuration not stated) |
| 88 to 89 | COc1ccc(C2(C#Cc3ccncc3)CCC(=O)CC2)cc1OC1CCCC1 |
| 77 to 78 | O=S(=O)(c1ccc(N2CCNCC2)cc1)n1ccc2cc(F)ccc21 |
| 192 | OC1CSC(Oc2cnc(-c3ccncc3)c(F)c2)C(O)C1O (configuration not stated) |
| 299 to 300 | Cn1c(=O)n(C)c2cc3c(N4CCN(C(=O)Nc5ccc([N+](=O)[O-])cc5)CC4)ncnc3cc21 |
| 97 | OCCC1c2ccccc2-c2ccccc21 |
| 202 | CS(=O)(=O)Nc1cc(-c2nc3ccccn3c2Br)c(F)cc1F |
| 127 to 128 | c1cncc(Nn2ccc3ccccc32)c1 |
| > 230 | CC(=O)Nc1cc(=O)cc2n1CCCCC2 |
| 110 to 112 | CCCc1nc2nccc(C)c2[nH]1 |
| 81.1 to 83.8 | O=C(O)C1(CCCCCCCCCCCCC2(C(=O)NCCO)CC2)CC1 |
| 127 | COC(=O)C1OC(OC(=O)C(C)C)C(OC(=O)C(C)C)C(OC(=O)C(C)C)C1OC(=O)C(C)C (configuration not stated) |
| 237 | CC(N)C(C)n1ncn(-c2ccc(N3CCN(c4ccc(O)cc4)CC3)cc2)c1=O (configuration not stated) |
| 191 to 193 | CN(C)CCCOc1ccc(/C=C/C(=O)O)cc1 |
| 162 to 164 | COC(=O)C(C#N)=Cc1cc(OC)c(OC)cc1[N+](=O)[O-] |
| 258 to 259 | Cn1nc2nc(C(C)(C)C)[nH]c(=O)c2c1N(S(C)(=O)=O)S(C)(=O)=O |
| 114 to 116 | COCCOc1cc(/C=C/C(=O)NS(=O)(=O)CCC(C)C)n(Cc2ccc(C(F)(F)F)cc2Cl)n1 |
| 81 to 88 | CNCCC(O)(c1ccc(Br)cc1)c1ccccn1 (configuration not stated) |
| 268 to 270 | Nc1ccc2c(=O)n3c(nc2c1)C(=Cc1ccccc1)CC3 |
| 127 to 129 | Cc1ccc(-n2nc3c(cc2=O)CCCc2sc(C=O)cc2-3)cc1 |
| 83 to 84 | Cc1ccc(S(=O)(=O)OCC2COc3ccccc3C2)cc1 (configuration not stated) |
| 86 to 89 | Cc1cnc(CCCCNc2ncc(Cc3ccc(C)nc3)c(=O)[nH]2)c(N)c1 |
| 230 | Nc1ccc2nc(-c3cccnc3)nn2c1 |

| melting point [°C] | SMILES |
| --- | --- |
| 126 to 128 | CCNC(=O)[C@@H]1CCCN1C(=O)[C@H](C)NC(=O)OCC |
| 232 to 233 | O=c1c2c(cc3n1CCCS3(=O)=O)CCCC2 |
| 155 to 157 | CCOC(=O)c1ccc2[nH]cc(C3CCN(C)CC3)c2c1 |
| 72 to 73 | CC(C)c1ccc(NC(=O)NCCc2ccccn2)cc1 |
| 63 to 65 | CN(C)S(=O)(=O)N(C)c1ccc(C(O)(C(F)(F)F)C(F)(F)F)cc1 |
| 184 to 186 | COCCNC(=O)Cn1nc(-c2ccccc2O)nc1-c1ccccc1O |
| 146 to 150 | CNCC(O)COc1cc(-c2ccc(C)cc2)nc2cc(C)ccc12 (racemic) |
| 213 to 215 | O=C(c1ccc(Br)cc1)c1cc2c(ccc3ccccc32)oc1=O |
| 65 to 69 | CCOC(=O)CSc1cc(C)nc(N)n1 |
| 182 | COCCOc1ccc2[nH]c(=O)n(C3CCCCC3)c2c1 |
| 220 | CC12CCC(C(=O)O)=CC1=CCC1C2CCC2(C)C(C(=O)CCc3ccc(F)cc3)CCC12 (configuration not stated) |
| 295 | CC(C)(C)NCP(=O)(O)O |
| 252 | O=C(Cc1ccccc1)Nc1ccc(NC(=O)OCc2ccccc2)c(O)c1 |
| 109 to 111 | Cc1cc(Oc2ncc(Cl)cc2Cl)n[nH]1 |
| 100 to 102 | CCCCC[C@H]1CC[C@H](CCc2ccc(O)c(C#N)c2C#N)CC1 |
| 190 to 191 | COCCNC(=O)Nc1ccc([N+](=O)[O-])cc1O |
| 101 to 103 | CC(C(=O)N(C)C)n1nc(-c2ccccc2)c2c1CCCC2 (configuration not stated) |
| 235 to 237 | O=C(Nc1cc(Cl)c(O)c(Cl)c1)c1ccc(O)cc1O |
| 133 to 135 | CC(C)Cc1ccc2sc3cc(CC(=O)O)ccc3c2c1 |
| 224 to 226 | N#Cc1cc(C(F)(F)F)[nH]c1-c1ccc(Br)o1 |
| 238 to 240 | Cc1ccc(NC(=O)NCc2cccc3c2C(=O)N(C2CCC(=O)NC2=O)C3=O)cc1Cl (configuration not stated) |
| 220 to 221 | CC(c1ccc(Oc2ccc(N)cc2)cc1)(c1ccc(Oc2ccc(N)cc2)cc1)c1ccc(Oc2ccc(N)cc2)cc1 |
| 128 to 130 | CCS(=O)(=O)N[C@H](C(=O)NCCc1cc(Br)c(OCc2ccccc2)c(OC)c1)C(C)C |
| 159 to 161 | O=C(O)CC(=O)Oc1cccc(-c2cn3c(n2)sc2ccccc23)c1 |
| 135 to 137 | Cc1ccc(C(=O)Nc2c[nH]nc2C(=O)NCCC#N)o1 |
| 40 to 43 | CC(F)C1C(=O)NC1CC(=O)OCc1ccccc1 (mixture of isomers) |
| 211 | COc1cccc(-c2nc(N)ncc2-c2ccc(=O)n(C(C)C)n2)c1 |
